Results taken from US20220305012A1, “L[…] TREATING SLEEP ISSUES” (EISAI R&D MANAGEMENT CO., LTD., priority 2019, published 2022).

Columns and labels:
Type in all cases: in vivo, human
[1] = test system: Subjects Having Insomnia Disorder; test: Example 2: latency to persistent sleep (LPS), polysomnography
Method: As used herein, the term “latency to persistent sleep”, abbreviated as “LPS.” means the minutes from lights off to the first epoch of 20 consecutive epochs (10 minutes) of non-wakefulness.
In some embodiments, a sleep parameter is determined objectively using polysomnography. Polysomnography is the monitoring of multiple electrophysiological parameters during sleep and generally includes measurement of EEG activity, electro-oculographic activity and electromyographic activity, as well as other measurements.
LPS—latency to persistent sleep: minutes from lights off to the first epoch of 20 consecutive epochs of non-wakefulness.
(§1) The treatment period lasted for 31 days. Subjects were randomized in a double-blind manner and received placebo, a tablet containing 5 mg of lemborexant, a tablet containing 10 mg of lemborexant, or a tablet containing 6.25 mg of zolpidem ER.
(§2) Within 5 minutes of the subject's mean habitual bedtime, study drug was administered and an overnight polysomnogram recording was initiated. At completion of the recording the following morning (Day 2), postural stability and cognitive performance were assessed. On the Day 2 evening, subjects returned to the clinic and a blood sample was collected before administering study drug, and then study drug was administered within 5 minutes of the subject's mean habitual bedtime. Again, a polysomnogram recording was initiated. The next morning (Day 3), postural stability and cognitive performance were assessed. A blood sample was also collected.
(§3) On Day 29, subjects returned to the clinic. Study drug was administered within 5 minutes of the subject's mean habitual bedtime and a polysomnogram recording was conducted. On the following morning (Day 30), postural stability and cognitive performance were assessed. After 1.5 hours of waketime, subjects rated their morning sleepiness level.
(§4) On the evening of Day 30, subjects returned to the clinic. A pre-dose blood sample was collected and study drug was again administered within 5 minutes of the subject's mean habitual bedtime. A polysomnogram recording was initiated. The following morning (Day 31), postural stability and cognitive performance were assessed and a blood sample was obtained. The ISI, FSS, EQ-5D-3L and PGI-Insomnia were administered. Blood and urine samples were collected for routine safety assessment. An electrocardiogram was performed, and vital signs and weight were assessed. The eC-SSRS was then administered to the subject. At 1.5 hours after waketime, subjects rated their morning sleepiness level.
The primary endpoint was to determine the change from baseline for mean latency to persistent sleep on days 29 and 30 of 5 mg or 10 mg lemborexant compared to placebo.

[2] = test system: Subjects Having Insomnia Disorder; test: Example 2: subjective wake after sleep onset (sWASO), sleep diary
Description: As used herein, the term “subjective wake after sleep onset”, abbreviated as “sWASO”, means the sum of estimated minutes of wake during the night after initial sleep onset until the time the subject stopped trying to sleep for the night, operationalized as the time the subject got out of bed for the day. In some embodiments, sWASO is derived from data entered in a subject's Sleep Diary. As used herein, an “improvement of sWASO” means a reduction in sWASO.
In some embodiments, sleep diaries were used to assess sleep parameters reported by subjects (i.e., subjective assessments) including subjective sleep onset latency (sSOL), subjective sleep efficiency (sSE), subjective WASO (sWASO), and subjective total sleep time (sTST). Subjects were instructed to complete the Sleep Diary developed based on the consensus Sleep Diary as described in Carney et al., “The consensus sleep diary: standardizing prospective sleep self-monitoring,” Sleep 2012; 35(2):287-302. In some embodiments, the Sleep Diary was used to assess the subject's global perception of quality of sleep on the previous night with the following question: “How would you rate the quality of your sleep last night?” Subjects rated the quality of their sleep on a scale from 1 to 9, with 1 being extremely poor and 9 being extremely good. In some embodiments, the Sleep Diary was used to assess subjective ratings of morning sleepiness with the following question: “How alert/sleepy do you feel this morning?” Subjects rated their sleepiness/alertness level on a Likert scale from 1 to 9, with 1 being extremely sleepy and 9 being extremely alert.
sWASO—subjective wake after sleep onset: sum of estimated minutes of wake during the night after initial sleep onset until the time the subject stopped trying to sleep for the night, operationalized as the time the subject got out of bed for the day.
as §1
Once home, the subject ingested study drug each night prior to bedtime and completed their sleep diary within 1 hour of waketime.

[3] = test system: Subjects Having Insomnia Disorder; test: Example 2: postural stability, body sway upon awakening in morning
Description: Subjects were provided with a sleep diary and trained on how to record entries. After subjects completed the sleep diary on 7 consecutive mornings, and provided that the subject was still eligible to participate in the study, they attended a second clinical meeting between 10 and 17 days before the randomization phase. The subject was then fitted with a polysomnogram and trained in how to complete the postural stability assessment and cognitive performance assessment battery. Subjects then underwent an 8-hour polysomnogram recording. Within 5 minutes of waking, the postural stability assessment and cognitive assessment battery were conducted on the subject.
as §2, §3, §4
An exemplary additional secondary endpoint is the change from baseline on the postural stability test of mean units of body sway on Days 2 and 3 after administration of 5 mg or 10 mg of lemborexant compared to zolpidem.

[4] = First 7 Nights of Treatment, Lemborexant 5 mg
[5] = First 7 Nights of Treatment, Lemborexant 10 mg
[6] = Last 7 Nights of Treatment, Lemborexant 5 mg
[7] = Last 7 Nights of Treatment, Lemborexant 10 mg
[8] = First 7 Nights of Treatment, Zolpidem ER 6.25 mg
[9] = Last 7 Nights of Treatment, Zolpidem ER 6.25 mg
[10] = Days 30/31, Zolpidem ER 6.25 mg

Cc1ncc(OC[C@@]2(c3cccc(F)c3)C[C@H]2C(=O)Nc2ccc(F)cn2)c(C)n1 [Lemborexant, (1R,2S)-2-(((2,4-dimethylpyrimidin-5-yl)oxy)methyl)-2-(3-fluorophenyl)-N-(5-fluoropyridin-2-yl)cyclopropanecarboxamide]
LPS LSM treatment ratio: Lemborexant/Zolpidem ([1]; 5 mg vs zolpidem ER 6.25 mg, Days 1/2): 0.874
LPS LSM treatment ratio: Lemborexant/Zolpidem ([1]; 5 mg vs zolpidem ER 6.25 mg, Days 29/30): 0.634
LPS LSM treatment ratio: Active/Placebo ([1]; 5 mg, Days 1/2): 0.850
LPS, Mean ([1]; 5 mg, Days 1/2): 28.27 min
LPS, Median ([1]; 5 mg, Days 1/2): 21.63 min
LPS LSM treatment ratio: Active/Placebo ([1]; 5 mg, Days 29/30): 0.773
LPS, Mean ([1]; 5 mg, Days 29/30): 25.84 min
LPS, Median ([1]; 5 mg, Days 29/30): 18.75 min
LPS, Mean ([1]; 5 mg, Study Baseline): 44.86 min
LPS, Median ([1]; 5 mg, Study Baseline): 33.13 min
LPS Change from Study Baseline, Mean ([1]; 5 mg, at Days 1/2): -16.59 min
LPS Change from Study Baseline, Median ([1]; 5 mg, at Days 1/2): -10.00 min
LPS Change from Study Baseline, Mean ([1]; 5 mg, at Days 29/30): -19.53 min
LPS Change from Study Baseline, Median ([1]; 5 mg, at Days 29/30): -12.00 min
LPS LSM treatment ratio: Lemborexant/Zolpidem ([1]; 10 mg vs zolpidem ER 6.25 mg, Days 1/2): 0.818
LPS LSM treatment ratio: Lemborexant/Zolpidem ([1]; 10 mg vs zolpidem ER 6.25 mg, Days 29/30): 0.594
LPS LSM treatment ratio: Active/Placebo ([1]; 10 mg, Days 1/2): 0.795
LPS, Mean ([1]; 10 mg, Days 1/2): 25.13 min
LPS, Median ([1]; 10 mg, Days 1/2): 21.75 min
LPS LSM treatment ratio: Active/Placebo ([1]; 10 mg, Days 29/30): 0.723
LPS, Mean ([1]; 10 mg, Days 29/30): 22.75 min
LPS, Median ([1]; 10 mg, Days 29/30): 19.25 min
LPS, Mean ([1]; 10 mg, Study Baseline): 44.61 min
LPS, Median ([1]; 10 mg, Study Baseline): 38.50 min
LPS Change from Study Baseline, Mean ([1]; 10 mg, at Days 1/2): -19.48 min
LPS Change from Study Baseline, Median ([1]; 10 mg, at Days 1/2): -10.50 min
LPS Change from Study Baseline, Mean ([1]; 10 mg, at Days 29/30): -21.46 min
LPS Change from Study Baseline, Median ([1]; 10 mg, at Days 29/30): -16.25 min
mean latency to persistent sleep ([1]; all lemborexant treatment groups, relative to baseline, placebo group, and zolpidem group (Table 13)): reduced
mean subjective wake after sleep onset ([2]; 10 mg, relative to baseline, placebo and zolpidem treatment groups (Table 20)): reduced
Subjective Wake After Sleep Onset, Change from Study Baseline, Mean (SD) [2, 4]: −39.33 (55.022)
Subjective Wake After Sleep Onset, Mean (SD) [2, 4]: 127.37 (78.303)
Subjective Wake After Sleep Onset, Model-adjusted change from baseline [2, 4]: −39.97
Subjective Wake After Sleep Onset, Change from Study Baseline, Mean (SD) [2, 5]: −55.06 (66.696)
Subjective Wake After Sleep Onset, Mean (SD) [2, 5]: 119.78 (74.825)
Subjective Wake After Sleep Onset, Model-adjusted change from baseline [2, 5]: −53.90
Subjective Wake After Sleep Onset, Change from Study Baseline, Mean (SD) [2, 6]: −44.51 (58.090)
Subjective Wake After Sleep Onset, Mean (SD) [2, 6]: 119.30 (81.645)
Subjective Wake After Sleep Onset, Model-adjusted change from baseline [2, 6]: −47.55
Subjective Wake After Sleep Onset, Change from Study Baseline, Mean (SD) [2, 7]: −57.96 (72.791)
Subjective Wake After Sleep Onset, Mean (SD) [2, 7]: 117.08 (83.753)
Subjective Wake After Sleep Onset, Model-adjusted change from baseline [2, 7]: −56.64
Body Sway Upon Awakening in Morning, Change from Study Baseline, Mean (SD) ([3]; Days 2/3, Lemborexant 5 mg): −0.82 ⅓ degree angle of arc
Body Sway Upon Awakening in Morning, Change from Study Baseline, Median ([3]; Days 2/3, Lemborexant 5 mg): −0.50 ⅓ degree angle of arc
Body Sway Upon Awakening in Morning, Mean (SD) ([3]; Days 2/3, Lemborexant 5 mg): 25.73 ⅓ degree angle of arc
Body Sway Upon Awakening in Morning, Median ([3]; Days 2/3, Lemborexant 5 mg): 21.00 ⅓ degree angle of arc
Body Sway Upon Awakening in Morning, Change from Study Baseline, Mean (SD) ([3]; Days 2/3, Lemborexant 10 mg): 0.56 ⅓ degree angle of arc
Body Sway Upon Awakening in Morning, Change from Study Baseline, Median ([3]; Days 2/3, Lemborexant 10 mg): 0.50 ⅓ degree angle of arc
Body Sway Upon Awakening in Morning, Mean (SD) ([3]; Days 2/3, Lemborexant 10 mg): 24.36 ⅓ degree angle of arc
Body Sway Upon Awakening in Morning, Median ([3]; Days 2/3, Lemborexant 10 mg): 20.00 ⅓ degree angle of arc
Body Sway Upon Awakening in Morning, Change from Baseline, Mean (SD) ([3]; Days 30/31, Lemborexant 5 mg): −0.85 ⅓ degree angle of arc
Body Sway Upon Awakening in Morning, Change from Baseline, Median ([3]; Days 30/31, Lemborexant 5 mg): −0.50 ⅓ degree angle of arc
Body Sway Upon Awakening in Morning, Mean (SD) ([3]; Days 30/31, Lemborexant 5 mg): 25.10 ⅓ degree angle of arc
Body Sway Upon Awakening in Morning, Median ([3]; Days 30/31, Lemborexant 5 mg): 20.50 ⅓ degree angle of arc
Body Sway Upon Awakening in Morning, Change from Baseline, Mean (SD) ([3]; Days 30/31, Lemborexant 10 mg): 0.48 ⅓ degree angle of arc
Body Sway Upon Awakening in Morning, Change from Baseline, Median ([3]; Days 30/31, Lemborexant 10 mg): 0.50 ⅓ degree angle of arc
Body Sway Upon Awakening in Morning, Mean (SD) ([3]; Days 30/31, Lemborexant 10 mg): 22.76 ⅓ degree angle of arc
Body Sway Upon Awakening in Morning, Median ([3]; Days 30/31, Lemborexant 10 mg): 18.00 ⅓ degree angle of arc
effects on postural stability compared to placebo ([3]; Table 24): no significant effects on postural stability compared to placebo
body sway ([3]; all lemborexant treatment groups, relative to baseline, placebo and zolpidem treatment groups (Table 24)): reduced

Cc1ccc(-c2nc3ccc(C)cn3c2CC(=O)N(C)C)cc1 [Zolpidem ER, zolpidem, reference compound]
LPS LSM treatment ratio: Active/Placebo ([1]; 6.25 mg, Days 1/2): 0.972
LPS, Mean ([1]; 6.25 mg, Days 1/2): 31.87 min
LPS, Median ([1]; 6.25 mg, Days 1/2): 27.00 min
LPS LSM treatment ratio: Active/Placebo ([1]; 6.25 mg, Days 29/30): 1.218
LPS, Mean ([1]; 6.25 mg, Days 29/30): 37.11 min
LPS, Median ([1]; 6.25 mg, Days 29/30): 28.50 min
LPS, Mean ([1]; 6.25 mg, Study Baseline): 44.52 min
LPS, Median ([1]; 6.25 mg, Study Baseline): 31.50 min
LPS Change from Study Baseline, Mean ([1]; 6.25 mg, at Days 1/2): -12.56 min
LPS Change from Study Baseline, Median ([1]; 6.25 mg, at Days 1/2): -5.63 min
LPS Change from Study Baseline, Mean ([1]; 6.25 mg, at Days 29/30): -7.51 min
LPS Change from Study Baseline, Median ([1]; 6.25 mg, at Days 29/30): -2.88 min
Subjective Wake After Sleep Onset, Change from Study Baseline, Mean (SD) [2, 8]: −48.91 (51.761)
Subjective Wake After Sleep Onset, Mean (SD) [2, 8]: 124.83 (75.279)
Subjective Wake After Sleep Onset, Model-adjusted change from baseline [2, 8]: −48.09
Subjective Wake After Sleep Onset, Change from Study Baseline, Mean (SD) [2, 9]: −63.52 (64.161)
Subjective Wake After Sleep Onset, Mean (SD) [2, 9]: 109.63 (72.583)
Subjective Wake After Sleep Onset, Model-adjusted change from baseline [2, 9]: −62.00
Body Sway Upon Awakening in Morning, Change from Study Baseline, Mean (SD) ([3]; Days 2/3, Zolpidem ER 6.25 mg): 4.07 ⅓ degree angle of arc
Body Sway Upon Awakening in Morning, Change from Study Baseline, Median ([3]; Days 2/3, Zolpidem ER 6.25 mg): 2.50 ⅓ degree angle of arc
Body Sway Upon Awakening in Morning, Mean (SD) ([3]; Days 2/3, Zolpidem ER 6.25 mg): 29.86 ⅓ degree angle of arc
Body Sway Upon Awakening in Morning, Median ([3]; Days 2/3, Zolpidem ER 6.25 mg): 25.00 ⅓ degree angle of arc
Body Sway Upon Awakening in Morning, Change from Baseline, Mean (SD) [3, 10]: 2.12 ⅓ degree angle of arc
Body Sway Upon Awakening in Morning, Change from Baseline, Median [3, 10]: 2.50 ⅓ degree angle of arc
Body Sway Upon Awakening in Morning, Mean (SD) [3, 10]: 27.65 ⅓ degree angle of arc
Body Sway Upon Awakening in Morning, Median [3, 10]: 22.50 ⅓ degree angle of arc
